Columns and labels:
HaCaT cells = assay: Wound closure in confluent HaCaT cell in vitro model; type: cell-based; conditions: confluent HaCaT cells with induced wound, 24 hours (FIG. 16)
Protocol: The effect of SH-401 on wound healing in skin was assessed using a confluent HaCaT cell in vitro model of wound closure.

human skin explants [1] = assay: UVB-induced apoptosis in epidermis of human skin explants, caspase-3 activation assay; type: cell-based; conditions: 24 hours after UVB 350 mJ/cm^2; 0.02-2 μg/cm^2; comparable to Ultrasol SPF 30 formulation (FIG. 8B)
Source text: (§1) Skins were obtained with permission from 30-60 year-old healthy women undergoing aesthetic abdomen surgery, after signing an informed consent. A mechanical skin press was used to section the skin to 0.8×0.8 cm^2 pieces, according to procedures described in Portugal-Cohen et al. [Exp Dermatol 2011, 20:749-755]. The skin explants were maintained in an air/liquid interface, dermal side submerged in the medium, according to procedures described in Portugal-Cohen et al. [Exp Dermatol 2011, 20:749-755] and Cohen et al. [Dead Sea and Arava Studies 2015, 7:66-74]. The human skin explants were laid in 6-well culture plates containing DMEM (Dulbecco's modified Eagle medium) supplemented with 100 units/ml penicillin and 100 μg/ml streptomycin), dermal side down in the medium and epidermis up. All samples were used after an overnight recovery.

[2] = Antioxidant capacity by DPPH colour shift, Trolox equivalents; conditions: 1 weight percent solution (FIG. 11)
Source text: Antioxidant capacity was further evaluated using the DPPH (diphenylpicrylhydrazyl) method. The color shift of DPPH in the presence of SH-401 and converted to units of Trolox (6-hydroxy-2,5,7,8-tetramethylchroman-2-carboxylic acid) equivalent antioxidant capacity based on a calibration curve.

human skin explants [3] = assay: Histological examination of UVB-irradiated skin explants; type: cell-based; conditions: UVB 350 mJ/cm^2 (FIGS. 14A-14D)
Source text: as §1

[4] = Photostability of SH-401 films on PMMA slides exposed to UV radiation, SPF versus time; type: physicochemical; conditions: film on PMMA slide, 12 hours of exposure to UV radiation (FIG. 7)
Protocol: In order to evaluate photostability, uniform films of pure SH-401 were prepared on PMMA (polymethyl methacrylate) slides by depositing 2 ml of […] solution on the slides and evaporating the solvent. The samples were then exposed to UV radiation for various time intervals, ranging up to 25 hours. The glass plates were then immersed in a mixture of ethanol/water (2:98% v/v) and the films were dissolved ultrasonically. The UV samples were then quantified by UV-visible absorption spectroscopy and the SPF value was determined according to procedures described hereinabove and plotted as a function of time.

pro-collagen = assay: Pro-collagen level in UVB-irradiated skin explants, ELISA; type: cell-based, human; conditions: following UVB radiation (FIG. 15A)
Source text: as §1

human skin explants [5] = assay: Cyclobutane pyrimidine dimers (CPD) in epidermis cells from skin explants, ELISA; type: cell-based; conditions: UVB 350 mJ/cm^2, 0.01-2 μg/cm^2 (FIG. 13)
Source text: as §1

human skin explants [6] = assay: DNA fragmentation in epidermis cells of skin explants, COMET assay; type: cell-based; conditions: UVB 350 mJ/cm^2, 2 μg/cm^2 (FIG. 12)
Source text: as §1

human skin explants [7] = assay: UVB-induced ROS generation in skin explants, DCFDA assay; type: cell-based; conditions: 0.02-2 μg/cm^2, with UVB (FIG. 9)
Source text: as §1
(§2) A common feature of UVB-induced damage is the generation of ROS (reactive oxygen species), which increases DNA damage, amplifies the generation of lipid peroxidation and hampers proteins and membranes within the cells [Schuch et al., Free Rad Biol Med 2017, 107:110-124]. […] ROS generation upon UVB radiation was evaluated in skin explants both by DCFDA (dichlorofluorescin diacetate) assay, as well as by measuring lipid peroxidation (by ELISA), which is associated with ROS generation.

TNFα = assay: UVB-induced TNFα hypersecretion in human skin explants, ELISA; type: cell-based; conditions: 24 hours after UVB 350 mJ/cm^2; 0.02-2 μg/cm^2; comparable to Ultrasol SPF 30 formulation (FIG. 8C)
Source text: as §1

[8] = SPF (sun protection factor) calculated from UV absorption spectra with the Mansur equation; type: physicochemical; conditions: 0.01 mg/ml
Protocol: Absorption spectra were used to calculate SPF (sun protection factor) values using the Mansur equation, according to procedures described by Dutra et al. [Braz J Pharma Sci 2004, 40:381-385], using OptLabTM X software ([…] order to investigate UVB blocking properties of various plants, a large-scale screening of traditionally-used herbs which grow in the Judean Desert was performed. The leaves, twigs, branches, fruits, and roots of each tested plant were collected, dried, ground and extracted separately in ethanol, water, chloroform or propylene glycol methyl ether acetate (PMA) using a Soxhlet system.

human skin explants [9] = assay: Epidermal cell viability in human skin explants, MTT assay; type: cell-based; conditions: topical application, entire concentration range tested (up to maximal solubility) (FIG. 8A)
Source text: as §1
In order to investigate the safety and efficacy of the active compound SH-401 (isolated as described in Example 2), several experiments were performed on human skin explants, according to procedures described in the Materials and Methods section hereinabove.

human skin explants [10] = assay: UVB-induced lipid peroxidation (MDA) in skin explants, ELISA; type: cell-based; conditions: 0.02-2 μg/cm^2, with UVB (FIG. 10)
Source text: as §1, §2

[11] = system: matrix metalloproteinase-1 (MMP1); assay: MMP1 in UVB-irradiated skin explants, ELISA; type: cell-based, human; conditions: following UVB radiation (FIG. 15B)
Source text: as §1

1,2,3,4,6-pentagalloyl-β-D-glucose [SH-401]
wound closure (HaCaT cells): enhanced wound closure | UVB-induced apoptosis in the epidermis (caspase-3 activation) (human skin explants [1]): attenuated | Trolox equivalent antioxidant capacity (DPPH) [2]: approximately 2,310 micromole Trolox equivalent (TE) units per 100 grams | UVB-induced pyknotic sunburn cells and reduction of the epidermal layer (histology) (human skin explants [3]): reversed this deleterious effect of the radiation | stability towards UV radiation (change in SPF value) [4]: essentially no change in SPF value | collagen synthesis (pro-collagen) (pro-collagen): enhanced | UVB-induced formation of cyclobutane pyrimidine dimers (CPD) (human skin explants [5]): reduced | UVB-induced DNA damage (COMET) (human skin explants [6]): attenuated | UVB-induced ROS generation (DCFDA) (human skin explants [7]): attenuated | UVB-induced TNFα hypersecretion (TNFα): attenuated | increase of SPF value relative to the crude extract [8]: more than 10 fold | skin viability (MTT) (human skin explants [9]): did not compromise skin viability | UVB-induced lipid peroxidation (MDA) (human skin explants [10]): attenuated | MMP1 activity [11]: reduced

From US20220117879A1, “PHOTO-PROTECTIVE PLANT-DERIVED COMPOSITION” (Ariel Scientific Innovations Ltd., priority 2019, published 2022)
